What was measured:
Assay type in all cases: biochemical
[1] = biological target: T1, Tissue Factor/factor VIIa (recombinant human factor VIIa, soluble Tissue Factor (1-219)) (Homo sapiens, UniProt P08709); assay: Tissue Factor/Factor VIIa antagonist assay (Ki, chromogenic substrate Chromozym-tPA); details: read-out: Ki(TFVIIa)
T1 construct: recombinant human factor VIIa (NB #25942-16); NB #25942-16
Procedure: Tissue Factor/Factor VIIa Antagonist Assay
This procedure can be used to determine the constant of inhibition (Ki) for a sample compound of the invention.
1. Prepare a solution of 2 μg/mL (90 nM) tissue factor and 1.5 μg/mL (30 nM) factor VIIa in assay buffer with CaCl2.
2. Incubate for 15 minutes at room temperature.
3. Add 50 μL sample to each well.
4. Add 50 μL tissue factor/factor VIIa solution to each well.
5. Incubate for 15 minutes at room temperature with gentle agitation.
6. Add 50 μL substrate to each well.
7. Agitate plate for 20-25 sec.
8. Monitor absorbance at 405 nm every 10 sec for a total of 5 minutes at room temperature.
9. Calculate Vmax over 10 points.
(§1) Assay—Enzyme, Substrate and Final Concentrations

[2] = biological target: T2, human Plasma Kallikrein (Homo sapiens, UniProt P03952); assay: Plasma Kallikrein assay (Ki, chromogenic substrate S-2302)
T2 construct: Factor Xa, Thrombin, and Plasma Kallikrein Assays
Procedure: (§2) Factor Xa, Thrombin, and Plasma Kallikrein Assays
(§3) These procedures can be used to determine the constant of inhibition (Ki) for a sample compound of the invention.
(§4) 1. Add 50 μL sample to each well.
(§5) 2. Add 50 μL appropriately diluted coagulation factor to each well.
(§6) 3. Incubate for 5 minutes at room temperature with gentle agitation.
(§7) 4. Add 50 μL appropriately diluted substrate to each well.
(§8) 5. Agitate plate for 20-25 sec.
(§9) 6. Monitor absorbance at 405 nm every 10 sec for a total of 5 minutes at room temperature.
(§10) 7. Calculate Vmax over 10 points.
as §1

[3] = biological target: T3, human Thrombin (Homo sapiens, UniProt P00734); assay: Thrombin assay (Ki, chromogenic substrate S-2366); details: read-out: Ki(IIa)
T3 construct: rapidly converts prothrombin to thrombin
Procedure: as §2, §3, §4, §5, §6, §7, §8, §9, §10, §1

[4] = biological target: T4, human Factor Xa (Homo sapiens, UniProt P00742); assay: Factor Xa assay (Ki, chromogenic substrate S-2222)
T4 construct: This complex converts factor X to Xa
Procedure: as §2, §3, §4, §5, §6, §7, §8, §9, §10, §1

T1 sequence (P08709 213-466 limits assumed): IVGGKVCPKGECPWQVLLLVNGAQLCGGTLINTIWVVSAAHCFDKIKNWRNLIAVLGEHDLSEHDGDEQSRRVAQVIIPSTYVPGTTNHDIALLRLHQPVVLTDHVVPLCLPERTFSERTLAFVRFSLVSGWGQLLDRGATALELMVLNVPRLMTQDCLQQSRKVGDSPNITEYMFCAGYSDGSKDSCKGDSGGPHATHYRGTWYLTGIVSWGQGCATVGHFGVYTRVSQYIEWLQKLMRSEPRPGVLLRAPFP
T1 sequence (P08709 61-212 limits assumed): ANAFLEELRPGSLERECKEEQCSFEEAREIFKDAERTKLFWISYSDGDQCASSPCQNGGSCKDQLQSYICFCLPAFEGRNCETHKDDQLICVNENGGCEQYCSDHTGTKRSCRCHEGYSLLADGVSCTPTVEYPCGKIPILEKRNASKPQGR
T1 sequence (P13726 33-251 partner limits assumed): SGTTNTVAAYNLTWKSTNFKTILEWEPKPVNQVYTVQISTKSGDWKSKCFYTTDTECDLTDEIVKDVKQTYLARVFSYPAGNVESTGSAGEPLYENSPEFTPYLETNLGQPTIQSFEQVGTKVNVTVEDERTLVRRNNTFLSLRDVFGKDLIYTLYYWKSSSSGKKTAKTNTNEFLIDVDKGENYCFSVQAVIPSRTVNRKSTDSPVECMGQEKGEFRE
T2 sequence (P03952 391-638 limits assumed): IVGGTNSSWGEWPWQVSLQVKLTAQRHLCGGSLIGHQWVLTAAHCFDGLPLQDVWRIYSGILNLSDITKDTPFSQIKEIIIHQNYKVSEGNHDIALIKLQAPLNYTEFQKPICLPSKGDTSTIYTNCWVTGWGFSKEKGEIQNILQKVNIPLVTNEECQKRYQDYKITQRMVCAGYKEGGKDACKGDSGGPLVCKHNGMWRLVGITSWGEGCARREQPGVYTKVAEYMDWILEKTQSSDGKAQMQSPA
T2 sequence (P03952 20-390 limits assumed): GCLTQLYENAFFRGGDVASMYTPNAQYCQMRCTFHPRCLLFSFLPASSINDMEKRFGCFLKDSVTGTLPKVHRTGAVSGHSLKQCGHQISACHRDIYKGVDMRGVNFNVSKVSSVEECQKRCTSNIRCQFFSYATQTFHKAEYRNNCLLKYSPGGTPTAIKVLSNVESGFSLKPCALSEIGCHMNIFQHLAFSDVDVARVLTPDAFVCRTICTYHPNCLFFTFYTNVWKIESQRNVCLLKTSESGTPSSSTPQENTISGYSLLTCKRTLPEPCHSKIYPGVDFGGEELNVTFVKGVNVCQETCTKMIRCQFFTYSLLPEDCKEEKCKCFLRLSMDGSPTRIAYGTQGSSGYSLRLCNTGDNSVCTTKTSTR
T4 sequence (P00742 235-488 limits assumed): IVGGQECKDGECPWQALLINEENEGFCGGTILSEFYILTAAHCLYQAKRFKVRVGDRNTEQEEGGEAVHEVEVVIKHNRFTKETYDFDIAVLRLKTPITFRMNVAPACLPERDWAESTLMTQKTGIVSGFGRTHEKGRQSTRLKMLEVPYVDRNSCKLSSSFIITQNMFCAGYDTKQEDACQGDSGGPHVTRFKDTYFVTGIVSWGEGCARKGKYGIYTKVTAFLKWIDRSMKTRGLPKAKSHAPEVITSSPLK
T4 sequence (P00742 41-179 limits assumed): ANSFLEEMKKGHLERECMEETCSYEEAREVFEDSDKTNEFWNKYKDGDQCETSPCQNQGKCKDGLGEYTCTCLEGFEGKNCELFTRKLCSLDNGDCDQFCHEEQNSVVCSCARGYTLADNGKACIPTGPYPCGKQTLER

`CCOc1cc(OCC)cc(C(Nc2ccc(C(=N)N)cc2)C(=O)NS(=O)(=O)c2ccccc2)c1` (stereo not shown) was tested, and the Ki [1] was 7 nM.
`CCOc1ccc(C(Nc2ccc(C(=N)N)cc2)C(=O)NS(=O)(=O)c2ccccc2)cc1OCC` (stereo not shown) showed a Ki [2] of 2 nM and a Ki [1] of 5 nM.
`CCCS(=O)(=O)NCC(Nc1ccc(C(=N)N)cc1)c1cc(OCC)c(OCC(C)C)cc1NS(=O)(=O)CCC` (stereo not shown) gave a Ki [2] of 1 nM.
In the case of `CCCS(=O)(=O)NCC(Nc1ccc(C(=N)N)cc1)c1cc(OCC)c(OC(C)C)cc1NS(C)(=O)=O` (stereo not shown), the Ki [2] is reported as 1 nM.
With `COc1cc(C(CNS(=O)(=O)c2cccs2)Nc2ccc(C(=N)N)cc2)ccc1OCc1ccccc1` (stereo not shown) [4-[1-(4-Benzyloxy-3-methoxy-phenyl)-2-(thiophene-2-sulfonylamino)-ethylamino]-benzamidine] the Ki [3] was 16 nM.
With `CCCS(=O)(=O)NCC(Nc1ccc(C(=N)N)cc1)c1cc(OCC)c(OCc2ccccc2)cc1NS(C)(=O)=O` (stereo not shown) [4-[1-(4-Benzyloxy-5-ethoxy-2-methanesulfonylamino-phenyl)-2-(propane-1-sulfonylamino)-ethylamino]benzamidine] the Ki [1] was 4 nM.
`COc1cc(C(CNS(=O)(=O)c2ccccc2)Nc2ccc(C(=N)N)cc2)ccc1OC(CCl)c1ccccc1` (stereo not shown) [4-{2-benzenesulfonylamino-1-[4-(2-chloro-1-phenyl-ethoxy)-3-methoxy-phenyl]-ethylamino}-benzamidine] showed a Ki [3] of 1 nM.
Work on `CCOc1cc(C(Nc2ccc(C(=N)N)cc2)C(=O)NS(=O)(=O)c2ccccc2)ccc1OC(C)C` (stereo not shown) [4-{2-benzenesulfonylamino-1-[4-isopropoxy,5-ethoxy)-phenyl]-2-oxo-ethylamino}benzamidine] yielded a Ki [4] of 898 nM, a Ki [3] of 113 nM and a Ki [1] of 3 nM.
`CCCCS(=O)(=O)NC(=O)C(Nc1ccc(C(=N)N)cc1)c1ccc(OC(C)C)c(OCC)c1` (stereo not shown) [4-{2-butylsulfonylamino-1-[4-isopropoxy,5-ethoxy)-phenyl]-2-oxo-ethylamino}benzamidine] was tested, and the Ki [4] was 624 nM.
`CCOc1cc(C(Nc2ccc(C(=N)N)cc2)C(=O)NS(=O)(=O)CC)ccc1OC(C)C` (stereo not shown) [4-{2-ethylsulfonylamino-1-[4-isopropoxy,5-ethoxy)-phenyl]-2-oxo-ethylamino}benzamidine] showed a Ki [4] of 565 nM and a Ki [2] of 11 nM.
With `CCCS(=O)(=O)NCC(Nc1ccc(C(=N)N)cc1)c1ccc(OC(CCl)c2ccccc2)c(OC)c1` (stereo not shown) [4-{2-propanesulfonylamino-1-[4-(2-chloro-1-phenyl-ethoxy)-3-methoxy-phenyl]-ethylamino}-benzamidine] the Ki [4] was 140 nM and the Ki [3] was 1 nM.
